Laboratory results from ChEMBL document CHEMBL1150207, “Cytotoxicities of some flavonoid analogues” (1991).
In brackets after ≈: the same amount, converted by molar mass.

Tests used:
Format in all cases: functional
MCF7 = assay: Cytotoxicity against human MCF7 cells after 6 days by MTT assay; settings: MCF7, 144 h, read-out: ED50 (the source's name)
A549 = assay: Cytotoxicity against human A549 cells after 6 days by MTT assay; settings: A549, 144 h, read-out: ED50 (the source's name)
Malme-3M = assay: Cytotoxicity against human MALME-3M cells after 6 days by MTT assay; settings: 144 h, read-out: ED50 (the source's name)
SK-MEL = assay: Cytotoxicity against human SK-MEL cells after 6 days by MTT assay; settings: 144 h, read-out: ED50 (the source's name)
HT-29 = assay: Cytotoxicity against human HT-29 cells after 6 days by MTT assay; settings: HT-29, 144 h, read-out: ED50 (the source's name)

COC(=O)c1c(-c2ccc([N+](=O)[O-])cc2)oc2cc(OC)ccc2c1=O
EC50 (MCF7): > 25 µg/mL
EC50 (A549): > 25 µg/mL
EC50 (Malme-3M): 1.12 µg/mL (≈ 3.15 µM)
EC50 (SK-MEL): 2.84 µg/mL (≈ 7.99 µM)
EC50 (HT-29): > 25 µg/mL

COC(=O)c1c(-c2ccc(O)cc2)oc2cc(OC)ccc2c1=O
EC50 (MCF7): > 25 µg/mL
EC50 (A549): > 25 µg/mL
EC50 (Malme-3M): 20.1 µg/mL (≈ 61.6 µM)
EC50 (SK-MEL): 19.6 µg/mL (≈ 59.9 µM)
EC50 (HT-29): 19.2 µg/mL (≈ 58.9 µM)
